1 compound from publication PMC5218480 (PLoS ONE, 2017) can be followed below.

The subject of the assay is MV-4-11 cells. Put plainly: Gene expression microarray analysis (Affymetrix PrimeView) and GSEA. More on the design: RFU PODN (11730768_x_at) / Fold change /veh PODN (11730768_x_at) / RFU LINC00158 (11744669_a_at) / Fold change /veh LINC00158 (11744669_a_at) / RFU DUSP10 (11751237_a_at) / Fold change /veh DUSP10 (11751237_a_at) / RFU ID3 (11757404_x_at) / Fold change /veh ID3 (11757404_x_at) / RFU PLEKHG5 (11737974_s_at) / Fold change /veh PLEKHG5 (11737974_s_at) / RFU LRRC4B (11730491_at) / Fold change /veh LRRC4B (11730491_at) / RFU GIMAP4 (11747438_a_at) / Fold change /veh GIMAP4 (11747438_a_at) / RFU KRT8 (11758183_x_at) / Fold change /veh KRT8 (11758183_x_at) / RFU CNN1 (11734310_a_at) / Fold change /veh CNN1 (11734310_a_at) / RFU VPS37D (11726825_at) / Fold change /veh VPS37D (11726825_at) / RFU C10orf10 (11716522_x_at) / Fold change /veh C10orf10 (11716522_x_at) / RFU KIR2DL2 /// KIR2DL4 /// KIR2DL5A /// KIR2DL5B /// KIR2DS1 /// KIR2DS2 /// KIR2DS3 /// KIR2DS4 /// KIR3DL3 /// KIR3DL3 /// KIR3DS1 (11738374_at) / Fold change /veh KIR2DL2 /// KIR2DL4 /// KIR2DL5A /// KIR2DL5B /// KIR2DS1 /// KIR2DS2 /// KIR2DS3 /// KIR2DS4 /// KIR3DL3 /// KIR3DL3 /// KIR3DS1 (11738374_at) / RFU C1QL1 (11718748_at) / Fold change /veh C1QL1 (11718748_at) / RFU TMPRSS4 (11747572_a_at) / Fold change /veh TMPRSS4 (11747572_a_at) / RFU HAMP (11756126_x_at) / Fold change /veh HAMP (11756126_x_at) / RFU RNFT2 (11725882_a_at) / Fold change /veh RNFT2 (11725882_a_at) / RFU NR4A2 (11747474_a_at) / Fold change /veh NR4A2 (11747474_a_at) / RFU ABCC12 (11746883_a_at) / Fold change /veh ABCC12 (11746883_a_at) / RFU TMEM136 (11760407_x_at) / Fold change /veh TMEM136 (11760407_x_at) / RFU CLDN22 /// WWC2 (11732394_at) / Fold change /veh CLDN22 /// WWC2 (11732394_at) / RFU HLA-DPB1 (11760878_x_at) / Fold change /veh HLA-DPB1 (11760878_x_at) / RFU SPINT1 (11716480_a_at) / Fold change /veh SPINT1 (11716480_a_at) / RFU GAP43 (11754022_s_at) / Fold change /veh GAP43 (11754022_s_at) / RFU A4GNT (11735810_at) / Fold change /veh A4GNT (11735810_at) / RFU PRB3 (11715151_x_at) / Fold change /veh PRB3 (11715151_x_at) / RFU TUBB4B (11761932_at) / Fold change /veh TUBB4B (11761932_at) / RFU CAPN14 (11732068_a_at) / Fold change /veh CAPN14 (11732068_a_at) / RFU TMCC2 (11721928_a_at) / Fold change /veh TMCC2 (11721928_a_at) / RFU IRGQ (11745062_a_at) / Fold change /veh IRGQ (11745062_a_at) / RFU FAM174B (11720279_a_at) / Fold change /veh FAM174B (11720279_a_at) / RFU TMPRSS4 (11748680_a_at) / Fold change /veh TMPRSS4 (11748680_a_at) / RFU FAM212B (11763350_a_at) / Fold change /veh FAM212B (11763350_a_at) / RFU PLEKHG5 (11743358_a_at) / Fold change /veh PLEKHG5 (11743358_a_at) / RFU ZSCAN30 (11745921_a_at) / Fold change /veh ZSCAN30 (11745921_a_at) / RFU CMKLR1 (11741424_a_at) / Fold change /veh CMKLR1 (11741424_a_at) / RFU LOC101060620 /// MAPK8IP1 (11723275_at) / Fold change /veh LOC101060620 /// MAPK8IP1 (11723275_at) / RFU SPTSSB (11747773_x_at) / Fold change /veh SPTSSB (11747773_x_at) / RFU PRSS12 (11739890_at) / Fold change /veh PRSS12 (11739890_at) / RFU BIN1 (11741810_x_at) / Fold change /veh BIN1 (11741810_x_at) / RFU WNT11 (11732464_a_at) / Fold change /veh WNT11 (11732464_a_at) / RFU C10orf10 (11716521_a_at) / Fold change /veh C10orf10 (11716521_a_at) / RFU C5orf56 (11738089_at) / Fold change /veh C5orf56 (11738089_at) / RFU CYB561 (11721691_x_at) / Fold change /veh CYB561 (11721691_x_at) / RFU ANKRD19P (11752326_a_at) / Fold change /veh ANKRD19P (11752326_a_at) / RFU OR2T12 /// OR2T33 /// OR2T8 (11738714_s_at) / Fold change /veh OR2T12 /// OR2T33 /// OR2T8 (11738714_s_at) / RFU VCAN (11748164_a_at) / Fold change /veh VCAN (11748164_a_at) / RFU JSRP1 (11732532_at) / Fold change /veh JSRP1 (11732532_at) / RFU KRTAP10-11 (11738290_x_at) / Fold change /veh KRTAP10-11 (11738290_x_at) / RFU MYO3A (11730013_a_at) / Fold change /veh MYO3A (11730013_a_at) / RFU EBF3 (11725865_a_at) / Fold change /veh EBF3 (11725865_a_at) / RFU CAMK2N1 (11719241_x_at) / Fold change /veh CAMK2N1 (11719241_x_at) / RFU C5orf56 (11738088_a_at) / Fold change /veh C5orf56 (11738088_a_at) / RFU OLFML3 (11715873_a_at) / Fold change /veh OLFML3 (11715873_a_at) / RFU LOC100653217 /// NTM (11731650_a_at) / Fold change /veh LOC100653217 /// NTM (11731650_a_at) / RFU MAPK11 (11762145_a_at) / Fold change /veh MAPK11 (11762145_a_at) / RFU FIZ1 (11724087_x_at) / Fold change /veh FIZ1 (11724087_x_at) / RFU OASL (11726364_x_at) / Fold change /veh OASL (11726364_x_at) / RFU SOX15 (11748057_x_at) / Fold change /veh SOX15 (11748057_x_at) / RFU CD79A (11719716_a_at) / Fold change /veh CD79A (11719716_a_at) / RFU HIST1H1D (11736915_at) / Fold change /veh HIST1H1D (11736915_at) / RFU CASKIN2 (11723855_a_at) / Fold change /veh CASKIN2 (11723855_a_at) / RFU LOC730098 (11760151_x_at) / Fold change /veh LOC730098 (11760151_x_at) / RFU OR4N2 (11742367_at) / Fold change /veh OR4N2 (11742367_at) / RFU PRRT2 (11749266_a_at) / Fold change /veh PRRT2 (11749266_a_at) / RFU SNX32 (11753110_a_at) / Fold change /veh SNX32 (11753110_a_at) / RFU CDHR5 (11726645_a_at) / Fold change /veh CDHR5 (11726645_a_at) / RFU RCAN1 (11760418_a_at) / Fold change /veh RCAN1 (11760418_a_at) / RFU FAM167A (11723789_a_at) / Fold change /veh FAM167A (11723789_a_at) / RFU FAM26E (11764081_at) / Fold change /veh FAM26E (11764081_at) / RFU ISYNA1 (11749810_s_at) / Fold change /veh ISYNA1 (11749810_s_at) / RFU ACY1 (11761880_at) / Fold change /veh ACY1 (11761880_at) / RFU 11764098_at / Fold change /veh 11764098_at / RFU SAMD14 (11745864_x_at) / Fold change /veh SAMD14 (11745864_x_at) / RFU NPB (11741838_a_at) / Fold change /veh NPB (11741838_a_at) / RFU TMPRSS6 (11731388_a_at) / Fold change /veh TMPRSS6 (11731388_a_at) / RFU KRTAP10-2 (11738614_at) / Fold change /veh KRTAP10-2 (11738614_at) / RFU ARHGAP8 /// PRR5-ARHGAP8 (11727945_x_at) / Fold change /veh ARHGAP8 /// PRR5-ARHGAP8 (11727945_x_at) / RFU KRTAP5-7 /// NADSYN1 (11734609_at) / Fold change /veh KRTAP5-7 /// NADSYN1 (11734609_at) / RFU RASL12 (11751679_a_at) / Fold change /veh RASL12 (11751679_a_at) / RFU CDKN2B (11736163_a_at) / Fold change /veh CDKN2B (11736163_a_at) / RFU PRF1 (11729649_at) / Fold change /veh PRF1 (11729649_at) / RFU, ZNF638 /// ZNF638-IT1 / Fold change vs veh, ZNF638 /// ZNF638-IT1 / RFU, PANK3 / Fold change vs veh, PANK3 / RFU, SH3YL1 / Fold change vs veh, SH3YL1 / RFU, ZEB2 / Fold change vs veh, ZEB2 / RFU, NRIP1 / Fold change vs veh, NRIP1 / RFU, PTTG1IP / Fold change vs veh, PTTG1IP / RFU, CAPN2 / Fold change vs veh, CAPN2 / RFU, MED14 / Fold change vs veh, MED14 / RFU, SNORA58 / Fold change vs veh, SNORA58 / RFU, C1orf63 / Fold change vs veh, C1orf63 / RFU, LRRFIP1 / Fold change vs veh, LRRFIP1 / RFU, NDUFAF7 / Fold change vs veh, NDUFAF7 / RFU, SLC12A2 / Fold change vs veh, SLC12A2 / RFU, IBTK / Fold change vs veh, IBTK / RFU, ESF1 / Fold change vs veh, ESF1 / Fold change vs veh, TMEM50B / RFU, TAOK1 / Fold change vs veh, TAOK1 / RFU, ACBD3 / Fold change vs veh, ACBD3 / RFU, TMA16 / Fold change vs veh, TMA16 / RFU, RWDD3 / Fold change vs veh, RWDD3 / RFU, BCAT1 / Fold change vs veh, BCAT1 / RFU, EDEM3 / Fold change vs veh, EDEM3 / RFU, TMEM33 / Fold change vs veh, TMEM33 / RFU, WDR75 / Fold change vs veh, WDR75 / RFU, AHCTF1 / Fold change vs veh, AHCTF1 / RFU, TFRC / Fold change vs veh, TFRC / RFU, ZDHHC17 / Fold change vs veh, ZDHHC17 / RFU, NOM1 / Fold change vs veh, NOM1 / RFU, ARL8B / Fold change vs veh, ARL8B / RFU, ZBTB11 / Fold change vs veh, ZBTB11 / RFU, TAMM41 / Fold change vs veh, TAMM41 / RFU, KIAA1704 /// LOC100996395 / Fold change vs veh, KIAA1704 /// LOC100996395 / RFU, ING1 / Fold change vs veh, ING1 / RFU, TRMT61B / Fold change vs veh, TRMT61B / RFU, FUBP3 / Fold change vs veh, FUBP3 / RFU, TP53 / Fold change vs veh, TP53 / RFU, TNKS2 / Fold change vs veh, TNKS2 / RFU, ZFP14 / Fold change vs veh, ZFP14 / RFU, ACTR2 / Fold change vs veh, ACTR2 / RFU, PPP3R1 / Fold change vs veh, PPP3R1 / RFU, PIK3R1 / Fold change vs veh, PIK3R1 / RFU, HNRNPA1 / Fold change vs veh, HNRNPA1 / RFU, RNF170 / Fold change vs veh, RNF170 / RFU, ZNF28 / Fold change vs veh, ZNF28 / RFU, RNGTT / Fold change vs veh, RNGTT / RFU, OGT / Fold change vs veh, OGT / RFU, BRD1 / Fold change vs veh, BRD1 / RFU, MARS / Fold change vs veh, MARS / RFU, ZNF655 / Fold change vs veh, ZNF655 / RFU, FAHD1 / Fold change vs veh, FAHD1 / RFU, BDP1 / Fold change vs veh, BDP1 / RFU, LRRCC1 / Fold change vs veh, LRRCC1 / RFU, ARID1A / Fold change vs veh, ARID1A / RFU, ZNF146 / Fold change vs veh, ZNF146 / RFU, ZNF330 / Fold change vs veh, ZNF330 / RFU, GPN3 / Fold change vs veh, GPN3 / RFU, C9orf123 / Fold change vs veh, C9orf123 / RFU, N4BP2L2 / Fold change vs veh, N4BP2L2 / RFU, ARFIP1 / Fold change vs veh, ARFIP1 / RFU, FAM179B / Fold change vs veh, FAM179B / RFU, BCL10 / Fold change vs veh, BCL10 / RFU, UHRF1BP1L / Fold change vs veh, UHRF1BP1L / RFU, BET1 / Fold change vs veh, BET1 / RFU, CNOT2 / Fold change vs veh, CNOT2 / RFU, ZNF268 / Fold change vs veh, ZNF268 / Fold change vs veh, ZNF507 / RFU, DGCR2 / Fold change vs veh, DGCR2 / RFU, WDSUB1 / Fold change vs veh, WDSUB1 / Fold change vs veh, HSP90B1 /// MIR3652 / RFU, ADSS / Fold change vs veh, ADSS / RFU, GK / Fold change vs veh, GK / RFU, ZNF148 / Fold change vs veh, ZNF148 / RFU, TAF9 / Fold change vs veh, TAF9 / RFU, SLC1A5 / Fold change vs veh, SLC1A5 / RFU, SLMO2 / Fold change vs veh, SLMO2 / RFU, ABCC4 / Fold change vs veh, ABCC4 / RFU, LOC101060439 /// RAP1B / Fold change vs veh, LOC101060439 /// RAP1B / RFU, RFX7 / Fold change vs veh, RFX7 / RFU, GTPBP10 / Fold change vs veh, GTPBP10 / RFU, CNEP1R1 / Fold change vs veh, CNEP1R1 / RFU, BIVM-ERCC5 /// ERCC5 / Fold change vs veh, BIVM-ERCC5 /// ERCC5 / RFU, ILF3 / Fold change vs veh, ILF3 / RFU 11762660_at / Fold change /veh 11762660_at / RFU VCAN (11757783_s_at) / Fold change /veh VCAN (11757783_s_at) / RFU DDX43 (11728927_at) / Fold change /veh DDX43 (11728927_at) / RFU KRT8 (11758188_x_at) / Fold change /veh KRT8 (11758188_x_at) / RFU NKD1 (11759106_at) / Fold change /veh NKD1 (11759106_at) / RFU SRD5A1 (11742802_a_at) / Fold change /veh SRD5A1 (11742802_a_at) / RFU TPSAB1 /// TPSB2 (11721975_s_at) / Fold change /veh TPSAB1 /// TPSB2 (11721975_s_at) / RFU GSTM3 (11746129_a_at) / Fold change /veh GSTM3 (11746129_a_at) / RFU IL23R (11737362_x_at) / Fold change /veh IL23R (11737362_x_at) / RFU TMEM51 (11727254_a_at) / Fold change /veh TMEM51 (11727254_a_at) / RFU PIWIL2 (11732686_x_at) / Fold change /veh PIWIL2 (11732686_x_at) / RFU ORM1 (11744905_x_at) / Fold change /veh ORM1 (11744905_x_at) / RFU CCDC152 (11743942_at) / Fold change /veh CCDC152 (11743942_at) / RFU ECM1 (11717891_a_at) / Fold change /veh ECM1 (11717891_a_at) / RFU IL23R (11748794_a_at) / Fold change /veh IL23R (11748794_a_at) / RFU TNFAIP8L3 (11732012_x_at) / Fold change /veh TNFAIP8L3 (11732012_x_at) / RFU MBOAT4 (11741988_at) / Fold change /veh MBOAT4 (11741988_at) / RFU 11764193_at / Fold change /veh 11764193_at / RFU TMEM53 (11763286_at) / Fold change /veh TMEM53 (11763286_at) / RFU MAGEB2 (11727129_at) / Fold change /veh MAGEB2 (11727129_at) / RFU TMEM200A (11744735_a_at) / Fold change /veh TMEM200A (11744735_a_at) / RFU CCDC152 (11751479_a_at) / Fold change /veh CCDC152 (11751479_a_at) / RFU FAM211A (11726209_a_at) / Fold change /veh FAM211A (11726209_a_at) / RFU RGS16 (11746705_a_at) / Fold change /veh RGS16 (11746705_a_at) / RFU VCAN (11755009_s_at) / Fold change /veh VCAN (11755009_s_at) / RFU RHOB (11743442_s_at) / Fold change /veh RHOB (11743442_s_at) / RFU RGS16 (11720943_a_at) / Fold change /veh RGS16 (11720943_a_at) / RFU RGS16 (11720944_at) / Fold change /veh RGS16 (11720944_at) / RFU, VPS4B / Fold change vs veh, VPS4B / RFU, CREB1 / Fold change vs veh, CREB1 / RFU, DNAJC13 / Fold change vs veh, DNAJC13 / RFU, GNAQ / Fold change vs veh, GNAQ / RFU, CDK5R1 / Fold change vs veh, CDK5R1 / RFU, ZRANB3 / Fold change vs veh, ZRANB3 / RFU, CUL4A / Fold change vs veh, CUL4A / RFU, CCNY / Fold change vs veh, CCNY / RFU, UFL1 / Fold change vs veh, UFL1 / RFU, COG3 / Fold change vs veh, COG3 / RFU, DIAPH2 / Fold change vs veh, DIAPH2 / RFU, SKA2 / Fold change vs veh, SKA2 / RFU, AFF3 / Fold change vs veh, AFF3 / RFU, LMF1 / Fold change vs veh, LMF1 / RFU, IPO11 / Fold change vs veh, IPO11 / RFU, DFFB / Fold change vs veh, DFFB / RFU, FOXP1 / Fold change vs veh, FOXP1 / RFU, CARD8 / Fold change vs veh, CARD8 / RFU, STRN3 / Fold change vs veh, STRN3 / RFU, ADK / Fold change vs veh, ADK / RFU, RASSF2 / Fold change vs veh, RASSF2 / RFU, WIPF1 / Fold change vs veh, WIPF1 / RFU, LARP1B / Fold change vs veh, LARP1B / RFU, RASA1 / Fold change vs veh, RASA1 / RFU, RB1 / Fold change vs veh, RB1 / RFU, PPFIA1 / Fold change vs veh, PPFIA1 / RFU, MAT2A / Fold change vs veh, MAT2A / RFU, CCT5 / Fold change vs veh, CCT5 / RFU, WDR92 / Fold change vs veh, WDR92 / RFU, CUX1 / Fold change vs veh, CUX1 / RFU, TTC7A / Fold change vs veh, TTC7A / RFU, TMEM135 / Fold change vs veh, TMEM135 / RFU, DEPTOR / Fold change vs veh, DEPTOR / RFU, CPM / Fold change vs veh, CPM / RFU, DNAJB6 / Fold change vs veh, DNAJB6 / RFU, CACNA2D3 / Fold change vs veh, CACNA2D3 / RFU, DTX4 / Fold change vs veh, DTX4 / RFU, TFCP2 / Fold change vs veh, TFCP2 / RFU, GMCL1 /// GMCL1P1 / Fold change vs veh, GMCL1 /// GMCL1P1 / RFU, AEBP2 / Fold change vs veh, AEBP2 / RFU, SNHG1 /// SNORD22 /// SNORD25 /// SNORD26 /// SNORD27 /// SNORD28 /// SNORD29 /// SNORD31 / Fold change vs veh, SNHG1 /// SNORD22 /// SNORD25 /// SNORD26 /// SNORD27 /// SNORD28 /// SNORD29 /// SNORD31 / Fold change (Aza/veh), C12orf56 (ProbeSet 11735607_a_at) / Fold change (ACY-1035/veh), C12orf56 (ProbeSet 11735607_a_at) / Fold change (Aza/veh), FGFR1OP (ProbeSet 11751329_s_at) / Fold change (ACY-1035/veh), FGFR1OP (ProbeSet 11751329_s_at) / Fold change (Aza/veh), VPS36 (ProbeSet 11739960_a_at) / Fold change (ACY-1035/veh), VPS36 (ProbeSet 11739960_a_at) / RFU SYPL1 (11715823_x_at) / Fold change /veh SYPL1 (11715823_x_at) / RFU IGFBP7 (11715501_s_at) / Fold change /veh IGFBP7 (11715501_s_at) / RFU REEP3 (11722064_at) / Fold change /veh REEP3 (11722064_at) / RFU IGLL1 (11728026_x_at) / Fold change /veh IGLL1 (11728026_x_at): dose or concentration left out as unconfirmed. The settings on record: MV-4-11 cells, 48 hours. The class given is cell-based, human.

For the compound `Nc1ccc(-c2cccs2)cc1NC(=O)c1ccc2c(c1)cc(C1CC1)n2CCN1CCOCC1` [ACY-1035], the “Fold change /veh TPSAB1 /// TPSB2 (11721975_s_at)” value turned out to be 0.95.
